± gives the expanded uncertainty stated by the source.
Experiment: xn = mol fraction of the nth substance listed
Conditions: 303 K, 101 kPa, Liquid; for speed of sound: Linear variable-path acoustic interferometer; for mass density: Pycnometric method

CC(C)=O [acetone] + Cc1ccccc1
speed of sound [m/s]
Conditions | x1 = 0.135 | x1 = 0.27 | x1 = 0.331 | x1 = 0.456 | x1 = 0.51 | x1 = 0.605 | x1 = 0.745 | x1 = 0.831 | x1 = 0.937
Frequency=1 MHz | 946 ± 2 | – | – | – | – | – | – | – | –
Frequency=3 MHz | 1040 ± 2 | 1032 ± 2 | 1020 ± 2 | 1000 ± 2 | 981 ± 2 | 965 ± 2 | 943 ± 2 | – | 1028 ± 2
Frequency=5 MHz | 1150 ± 2 | 1130 ± 2 | 1102 ± 2 | 1080 ± 2 | 1040 ± 2 | 1010 ± 2 | 1000 ± 2 | 1150 ± 2 | 1230 ± 2

Conditions | mass density [kg/m3]
x1 = 0.135 | 850 ± 1
x1 = 0.27 | 840 ± 1
x1 = 0.331 | 836 ± 1
x1 = 0.456 | 827 ± 1
x1 = 0.51 | 823 ± 1
x1 = 0.605 | 817 ± 1
x1 = 0.745 | 807 ± 1
x1 = 0.831 | 800 ± 1
x1 = 0.937 | 793 ± 1
x1 = 1 | 789 ± 1

Cc1ccccc1 [toluene] + CC(C)=O
Conditions | mass density [kg/m3]
x2 = 0 | 860 ± 1
